Experiments:
[1] = system: Pseudomonas aeruginosa-injected T. molitor larvae; assay: Mortality of Pseudomonas aeruginosa-injected T. molitor larvae; format: in vivo, Tenebrio molitor; settings: 10 μM; 20 days of incubation; FIG. 10
Protocol: The mortality of Tenebrio molitor (T. molitor) larvae was measured with a positive control or compound (0-10 μM) by the method used as in previous research. Overnight-cultured P. aeruginosa (OD 595 nm=1.0) was centrifuged for 10 minutes at 10,000 rpm. The supernatant was filtered through a 0.22-μm filter, and injected into the larvae using a syringe needle. The larvae were stored in a petri dish for 20 days at 25° C. The mortality of the larvae was measured every 5 days.

Pseudomonas aeruginosa [2] = assay: EPS analysis of drip-flow biofilm cells (carbohydrates, proteins); format: cell-based; settings: 10 μM
Protocol: EPS analysis was carried out with the biofilm cells attached to the slides after the operation of the drip-flow reactor. The biofilm cells that were centrifuged were re-suspended with 0.01M KCl, and for the analysis of carbohydrates and proteins, the cells were disrupted with a sonicator (VCX 750, SONICS, Newtown, Conn., USA) for 5 seconds at a level of 3.5 Hz, followed by stopping for 5 seconds, which was repeated 4 times. A supernatant of the cell-disrupted suspension was filtered through a 0.22 μm membrane filter (Millex filter, Carl Roth, Karlsruhe, Germany). For protein analysis, a mixture containing 40 μL of the filtrate and 200 μL of a Lowry reagent (L3540, Sigma-Aldrich) was incubated at room temperature for 10 minutes. Afterward, 20 μL of a Folin-Ciocalteu reagent (Sigma-Aldrich) was added and incubated at room temperature for 30 minutes, followed by measuring OD at 750 nm using a multimode plate reader. A protein amount was quantified at OD 750 nm or OD 595 nm. For carbohydrate analysis, a mixture containing 50 μL of the filtrate and 150 μL of 99.9% sulfuric acid was incubated at room temperature for 30 minutes. Afterward, 5% phenol was added, followed by incubation at 90° C. for 5 minutes. OD was measured at 490 nm using a multimode plate reader. The amount of carbohydrates was quantified at OD 490 nm or OD 595 nm.

Pseudomonas aeruginosa [3] = assay: Bacterial growth under static condition (OD 595 nm of suspended culture); format: cell-based
Outline: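 Overnight P. aeruginosa culture diluted 1:20 in AB medium (pH 7.5, 1% glucose) with compound at 0–100 μM, held static in borosilicate bottles at 37° C. for 24 hours. Growth read as OD 595 nm of suspended culture; attached biofilm stained with 0.1% crystal violet, ethanol-eluted, read at 545 nm.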

[4] = system: rhlR variant of P. aeruginosa; assay: Pyocyanin production assay, rhlR variant; format: cell-based, Pseudomonas aeruginosa; settings: 10 μM, FIG. 9C
Protocol: P. aeruginosa cultured overnight with a positive control or compound (0-10 μM) was inoculated in an AB medium, incubated for 24 hours at 37° C., and centrifuged for 10 minutes at 10,000 rpm. To extract pyocyanin, the supernatant was reacted with 50% trifluoroacetic acid (TFA, Sigma-Aldrich) for 1 hour at 37° C. The reacted supernatant was centrifuged for 10 minutes at 10,000 rpm, and filtered through a 0.22-μm filter. […] Specific HPLC conditions are as follows: mobile phase deionized water; TFA (99:1); injection volume:10 μL; temperature: 25° C.; and flow rate: 0.5 mL/min. The retention time of pyocyanin (Sigma-Aldrich) is 20 minutes. To measure a pyocyanin amount, when the retention time was 20 minutes, the height of an analysis peak was detected.

## CCCC(=O)C#Cc1ccc(F)c(F)c1 [Compound 30, 1-(3,4-Difluorophenyl)hex-1-yn-3-one]
[1]
  larvae survived to the end of the incubation: approximately 80%
Pseudomonas aeruginosa [2]; FIG. 8B
  reduction of the amount of carbohydrates in EPS: 39%
Pseudomonas aeruginosa [2]; FIG. 8C
  reduction of the amount of proteins in EPS: 72%
Pseudomonas aeruginosa [3]; 100 PM [sic] (100 μM)
  effect on cell growth (in words): no effect
Pseudomonas aeruginosa [3]; Pseudomonas aeruginosa, 24 h, read-out: Relative biological activity (%) Bacterial growth 10
  activity at 10 µM: 103%
Pseudomonas aeruginosa [3]; Pseudomonas aeruginosa, 24 h, read-out: Relative biological activity (%) Bacterial growth 100
  activity at 100 µM: 99%
[4]
  virulence factor (pyocyanin) production vs control of the rhlR variant: no difference
